Tested on: M-5 ovarian carcinoma
Experiment: Test 1: M-5 ovarian carcinoma in mice, single dose
Format: in vivo
Details: single dose two days after inoculation; for Toxicity (number of animals which exhibited signs of toxicity): group of 10 mice; for Inhibition (percent inhibition of tumor growth): tumors measured 13 days after inoculation
Description: Representative compounds of the invention have been tested using murine tumors in female mice to determine their antineoplastic efficacy. Several different tumor systems have been used in these tests, and the compounds have been administered on a number of different dosage schedules. In general, all the tests were started by inoculating female mice with the tumor, subcutaneously. After some number of days delay, intraperitoneal administration of the test compound was begun. Each treatment group consisted of 10 mice, and untreated control groups were included in all experiments. At the completion of the treatment period, the tumors of the control and the treated mice were measured and the mass of them calculated from the measurements. The data are reported here as percent inhibition of tumor growth, based on the tumors of the untreated control mice.
The tumor in this test was M-5 ovarian carcinoma; the compounds were administered as a single dose, two days after inoculation, and the tumors were measured 13 days after inoculation.

For `CCCCCCCCCCCCCCCCCCC(COP(=O)(O)OP(=O)(O)OC[C@H]1O[C@@H](n2ccc(N)nc2=O)C(F)(F)[C@@H]1O)OCC` (stereo partly shown) [Example 3, 2′-Deoxy-2′,2′-difluorocytidine, 5′-(dihydrogen diphosphate), P′-(2-ethoxyeicosyl) ester], the “Toxicity (number of animals which exhibited signs of toxicity)” value (50 mg/kg intraperitoneal) was 0/10, the “Inhibition (percent inhibition of tumor growth)” value (50 mg/kg intraperitoneal) was 53% and the “Toxicity (number of animals which exhibited signs of toxicity)” value (100 mg/kg intraperitoneal) was 0/10. For the same compound, the “Inhibition (percent inhibition of tumor growth)” value (100 mg/kg intraperitoneal) was 64%.
